In patent US5322928A, “Diapause hormone isolated from silkworm exhibiting improved diapause activity” (Shionogi Seiyaku Kabushiki Kaisha, priority 1991, dated 1994):
Where no end group is shown, it is not given here.

System: silkworm non-diapause strain (N4 line) pupa
Assay: Assay of bioactivity: specimen injected into 4 days-age pupa of non-diapause strain, percentage of laid eggs that diapause
Format: in vivo, silkworm (Bombyx mori)
Conditions: qualitative
Procedure: The hormonal activity was confirmed by the following method: the specimen is injected into the 4 days-age pupa of non-diapause strain. After the pupa transforms into a imago, copulates, and lays eggs, it is investigated whether or not the eggs diapause without embryogenesis. […] In case that the specimen has the hormonal activity, the color of the eggs becomes blackish-brown which is not observed in non-diapausing eggs. […] The hormonal activity is determined by calculating what percentage of the eggs laid by one imago diapauses. One diapause hormone unit is the amount of the hormone which make 50% of the laid eggs diapause. In this invention, the isolated diapause hormone was 0.1 ng/unit.

Row | Substance | diapause hormone activity (hormonal activity in bioassay)
1 | TDMKDESDRGAHSERGALCFGPRL-NH2 [amino acid 19 is Cys] | have diapause activity
2 | TDMKDESDRGAHSERGALWFGPRL-NH2 [amino acid 19 is Trp] | have diapause activity
